Assay results taken from patent US11155537B2, “Crystal of benzofuran derivative free base and preparation method” (Jiangsu Hengrui Medicine Co., Ltd., priority 2017, dated 2021).

What was measured:
[1] = Long-term, accelerated stability of crystal forms B and D (XRPD); type: physicochemical; conditions: Day 20; for change of XRPD peaks / crystal form stability: spread flat in the air
Method: 2. X-ray Powder Diffraction, XRPD
Instrument type: BRUKER D8 Discover A25 X-ray powder diffractometer
Ray: monochromatic Cu—Kα ray (λ=1.5406 Å)
Scanning mode: θ/2,θ Scanning range: 10-48°
Voltage: 40 kV, Electric current: 40 mA
The sample of crystal form B was spread flat in the air to test sample stability under conditions of 25° C.-65% relative humidity (RH), and the sampling time was Day 20. The sample of crystal form D was spread flat in the air to test sample stability under conditions of 40° C.-75% RH and 25° C.-65% RH, and the sampling time was Day 20.

[2] = Dynamic Vapour Sorption (DVS) hygroscopicity; type: physicochemical; conditions: 25° C., water, humidity change 0-95-0-95-0% RH; FIGS. 8 and 9
Method: 3. Dynamic Vapour Sorption, DVS
Instrument type: DVS advantage
The crude product N-((4,6-dimethyl-2-oxo-1,2-dihydropyridin-3 -yl)methyl)-5 -ethyl-6-(ethyl(tetrahydro-2 H-pyran-4-yl)amino)-2-(piperidin-1-ylmethyl)benzofuran-4-carboxamide (50 mg, 0.091 mmol) obtained in Comparative example 1 was added to a reaction flask, and methanol (100 μL) was added. The solution was stirred at 25° C. for five days, filtrated and dried under vacuum to obtain a white to pale yellow powder. The DSC spectrum is shown in FIG. 7, in which the onset melting temperature is about 205.45° C.

Row | change of XRPD peaks / crystal form stability ([1]; 25° C.-65% RH) | hygroscopicity (DVS diagrams) [2] | physical stability compared between crystal forms ([1]; 25° C.-65%RH) | change of XRPD peaks / crystal form stability ([1]; 40° C.-75% RH) | Structure (SMILES)
1 | has changed significantly |  |  |  | CCc1c(N(CC)C2CCOCC2)cc2oc(CN3CCCCC3)cc2c1C(=O)NCc1c(C)cc(C)[nH]c1=O [crystal form B, N-((4,6-dimethyl-2-oxo-1,2-dihydropyridin-3-yl)methyl)-5-ethyl-6-(ethyl(tetrahydro-2 H-pyran-4-yl)amino)-2-(piperidin-1-ylmethyl)benzofuran-4-carboxamide]
2 |  | no obvious hygroscopicity | better than that of crystal form B | has not changed substantially | CCc1c(N(CC)C2CCOCC2)cc2oc(CN3CCCCC3)cc2c1C(=O)NCc1c(C)cc(C)[nH]c1=O [crystal form D, N-((4,6-dimethyl-2-oxo-1,2-dihydropyridin-3-yl)methyl)-5-ethyl-6-(ethyl(tetrahydro-2 H-pyran-4-yl)amino)-2-(piperidin-1-ylmethyl)benzofuran-4-carboxamide]
